Consider 25 molecules from patent US20100173888A1 (Pfizer Inc, priority 2008, published 2010).

The target of this experiment is human recombinant H-PGDS (Homo sapiens, UniProt O60760). Description: Slightly modified fluorescence intensity h-PGDS TBA enzyme assay (1:40,000 enzyme, 40 second reaction, 1/2 log dilutions, top concentration typically 10 μM). It counts as biochemical. The conditions noted are these: slightly modified assay: 1:40,000 human recombinant H-PGDS. The procedure: Fluoresecence Intensity h-PGDSTBA Enzyme Assay
human recombinant H-PGDS, sequence (O60760 whole entry): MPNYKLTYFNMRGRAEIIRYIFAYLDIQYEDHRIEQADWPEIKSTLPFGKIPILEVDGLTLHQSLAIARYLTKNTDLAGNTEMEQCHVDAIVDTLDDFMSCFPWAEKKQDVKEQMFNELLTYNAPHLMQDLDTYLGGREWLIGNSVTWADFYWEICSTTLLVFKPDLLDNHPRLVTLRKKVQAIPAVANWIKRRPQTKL
Prostaglandin D Synthase (PGDS) converts the substrate prostaglandin H2 (PGH2) to prostaglandin D2. The depletion of PGH2 was measured via an Fe(II) reduction of the remaining PGH2 to malondialdehyde (MDA) and 12-HHT. The enzyme assay is based on the quantitative formation of a fluorescent complex from the non-fluorescent compounds MDA and 2-thiobarbituric acid (TBA), substantially as described in U.S. patent application publication US-2004/152148 by Lombardt.
Examples 6-8, 11a-16, 23, 26-47, 49-103, 105-113, 115-118 and 126-128 were tested in a slightly modified assay: The enzyme assay (30 μls during biological process) contained 100 mM Trizma pH 8.0, 100 μM MgCl2, 0.1 mg/ml IgG Rabbit serum, 5.0 μM PGH2 (Cayman; ethanol solution, #17020), 2.5 mM L-Glutathione (Sigma; reduced form #G4251), 1:40,000 human recombinant H-PGDS (from 1 mg/ml), 0.5% DMSO and inhibitor (varying concentration). 3 μls of diluted inhibitor (dissolved in DMSO) was plated into a 384-well assay plate followed by a 24 μl addition of an enzyme solution containing h-PGDS, Trizma, MgCl2, IgG and L-Glutathione. After pre-incubation of inhibitor and enzyme solution for 10 minutes at room temperature, the reaction was initiated with a 3 μl addition of substrate solution in 10 mM HCl. The reaction was terminated after 40 second by the addition of 3 μl stop buffer containing FeCl2 and citric acid. After addition of 45 μls of TBA plates were heated for one hour in a 70° C. oven. Plates were cooled at room temperature overnight and read on a plate reader the next day with excitation @ 530 nm and emission @ 560 nm. IC50' s of inhibitors were calculated with a 4-parameter fit using 11 inhibitor concentrations in duplicate with ½ log serial dilutions. Controls on each plate included no inhibitor (zero % effect) and an inhibitor 500-fold in excess of its' IC50 (100% effect). The highest inhibitor concentration tested was typically 10 μM.
One may read the IC50 as the concentration needed to halve the response being measured. On to `O=C(N[C@H]1CCC[C@@H](C(=O)NC2CCCC2)C1)c1ccc(-c2cccc(F)c2)nc1` (relative stereo) [Example 33, N-[cis-3-(Cyclopentylcarbamoyl)cyclohexyl]-6-(3-fluorophenyl)nicotinamide], for which the IC50 was determined as 10 nM.

Turning to `CC(C)NC(=O)[C@@H]1CCC[C@H](NC(=O)c2ccc(-c3cccc(F)c3)nc2)C1` (relative stereo) [Example 34, 6-(3-Fluorophenyl)-N-[cis-3-(isopropylcarbamoyl)cyclohexyl]nicotinamide], the half-inhibitory concentration (IC50) came out at 8.32 nM.

For the molecule `CN1CCN(C(=O)[C@@H]2CCC[C@H](NC(=O)c3ccc(-c4cccc(F)c4)nc3)C2)CC1` (relative stereo) [Example 35, 6-(3-Fluorophenyl)-N-{cis-3-[(4-methylpiperazin-1-yl)carbonyl]cyclohexyl}nicotinamide], the IC50 was 8.29 nM.

For the molecule `O=C(N[C@H]1CCC[C@@H](C(=O)N2CCOCC2)C1)c1ccc(-c2cccc(F)c2)nc1` (relative stereo) [Example 36, 6-(3-Fluorophenyl)-N-[cis-3-(morpholin-4-ylcarbonyl)cyclohexyl]nicotinamide], the IC50 was 8.34 nM.

`CNCCN(C)C(=O)[C@@H]1CCC[C@H](NC(=O)c2ccc(-c3cccc(F)c3)nc2)C1` (relative stereo) [Example 37, 6-(3-Fluorophenyl)-N-[cis-3-{methyl[2-(methylamino)ethyl]carbamoyl}cyclohexyl]nicotinamide]: the IC50 was determined as 25.4 nM.

Turning to `CC(C)(C)NC(=O)[C@@H]1CCC[C@H](NC(=O)c2ccc(-c3cccc(F)c3)nc2)C1` (relative stereo) [Example 38, N-[cis-3-(tert-Butylcarbamoyl)cyclohexyl]-6-(3-fluorophenyl)nicotinamide], the IC50 stood at 8.43 nM.

On to `CN(Cc1ccccc1)C(=O)[C@@H]1CCC[C@H](NC(=O)c2ccc(-c3cccc(F)c3)nc2)C1` (relative stereo) [Example 39, N-{cis-3-[Benzyl(methyl)carbamoyl]cyclohexyl}-6-(3-fluorophenyl)nicotinamide], for which the IC50 is 4.26 nM.

With `CCN(CC)C(=O)[C@@H]1CCC[C@H](NC(=O)c2ccc(-c3cccc(F)c3)nc2)C1` (relative stereo) [Example 40, N-[cis-3-(Diethylcarbamoyl)cyclohexyl]-6-(3-fluorophenyl)nicotinamide], the IC50 amounted to 9 nM.

Take `O=C(N[C@H]1CCC[C@@H](C(=O)N2CCNCC2)C1)c1ccc(-c2cccc(F)c2)nc1` (relative stereo) [Example 42, 6-(3-Fluorophenyl)-N-[cis-3-(piperazin-1-ylcarbonyl)cyclohexyl]nicotinamide]: the concentration for half-maximal inhibition (IC50) was found to be 10.2 nM.

As for `O=C(N[C@H]1CCC[C@@H](C(=O)N2CCN(C3CC3)CC2)C1)c1ccc(-c2cccc(F)c2)nc1` (relative stereo) [Example 43, N-{cis-3-[(4-Cyclopropylpiperazin-1-yl)carbonyl]cyclohexyl}-6-(3-fluorophenyl)nicotinamide], the IC50 was 14.4 nM.

Turning to `O=C(N[C@H]1CCC[C@@H](C(=O)NCCCO)C1)c1ccc(-c2cccc(F)c2)nc1` (relative stereo) [Example 64E, 6-(3-fluorophenyl)-N-{cis-3-[(3-hydroxypropyl)carbamoyl]cyclohexyl}nicotinamide], the IC50 stood at 9.3 nM.

Turning to `CN(C)CCCNC(=O)[C@@H]1CCC[C@H](NC(=O)c2ccc(-c3cccc(F)c3)nc2)C1` (relative stereo) [Example 64F, N-[cis-3-{[3-(dimethylamino)propyl]carbamoyl}cyclohexyl]-6-(3-fluorophenyl)nicotinamide], the IC50 came to 16.8 nM.

Consider `O=C(N[C@H]1CCC[C@@H](C(=O)NCCN2CCCCC2)C1)c1ccc(-c2cccc(F)c2)nc1` (relative stereo) [Example 64I, 6-(3-fluorophenyl)-N-{cis-3-[(2-piperidin-1-ylethyl)carbamoyl]cyclohexyl}nicotinamide], for which the IC50 was 11.1 nM.

Regarding `CCN1CCC(CNC(=O)[C@@H]2CCC[C@H](NC(=O)c3ccc(-c4cccc(F)c4)nc3)C2)C1` (relative stereo) [Example 64J, N-[cis-3-{[(1-ethylpyrrolidin-3-yl)methyl]carbamoyl}cyclohexyl]-6-(3-fluorophenyl)nicotinamide], the IC50 came to 19.6 nM.

Take `CCN1CCC(NC(=O)[C@@H]2CCC[C@H](NC(=O)c3ccc(-c4cccc(F)c4)nc3)C2)CC1` (relative stereo) [Example 64M, N-{cis-3-[(1-ethylpiperidin-4-yl)carbamoyl]cyclohexyl}-6-(3-fluorophenyl)nicotinamide]: the IC50 came out at 509 nM.

Consider `O=C(NC1CCC(N2CCOCC2)CC1)c1ccc(-c2cccc(F)c2)nc1` (single isomer, unassigned) [Example 49, 6-(3-Fluorophenyl)-N-(4-morpholin-4-ylcyclohexyl)nicotinamide], for which the IC50 turned out to be 69.2 nM.

In the case of `O=C(NC1CCC(N2CCOCC2)CC1)c1ccc(-c2cccc(F)c2)nc1` (single isomer, unassigned) [Example 50, 6-(3-Fluorophenyl)-N-(4-morpholin-4-ylcyclohexyl)nicotinamide], the IC50 was found to be 5.76 nM.

As to `CN1CCN(C2CCC(NC(=O)c3ccc(-c4cccc(F)c4)nc3)CC2)CC1` (single isomer, unassigned) [Example 51, 6-(3-Fluorophenyl)-N-[-4-(4-methylpiperazin-1-yl)cyclohexyl]nicotinamide], the half-maximal inhibitory concentration (IC50) was 172 nM.

In the case of `CN1CCN(C2CCC(NC(=O)c3ccc(-c4cccc(F)c4)nc3)CC2)CC1` (single isomer, unassigned) [Example 52, 6-(3-Fluorophenyl)-N-[-4-(4-methylpiperazin-1-yl)cyclohexyl]nicotinamide], the IC50 was 39.1 nM.

As for `COCCNC1CCC(NC(=O)c2ccc(-c3cccc(F)c3)nc2)CC1` (single isomer, unassigned) [Example 54, 6-(3-Fluorophenyl)-N-{4-[(2-methoxyethyl)amino]cyclohexyl}nicotinamide], the IC50 was found to be 87.2 nM.

For `COCCNC1CCC(NC(=O)c2ccc(-c3cccc(F)c3)nc2)CC1` (single isomer, unassigned) [Example 55, 6-(3-Fluorophenyl)-N-{4-[(2-methoxyethyl)amino]cyclohexyl}nicotinamide], the IC50 is 18.5 nM.

For the molecule `O=C(NC1CCC(NC2CCOC2)CC1)c1ccc(-c2cccc(F)c2)nc1` (single isomer, unassigned) [Example 56, 6-(3-Fluorophenyl)-N-[-4-(tetrahydrofuran-3-ylamino)cyclohexyl]nicotinamide], the IC50 turned out to be 30.6 nM.

For the molecule `O=C(NC1CCC(NC2CCOC2)CC1)c1ccc(-c2cccc(F)c2)nc1` (single isomer, unassigned) [Example 57, 6-(3-Fluorophenyl)-N-[-4-(tetrahydrofuran-3-ylamino)cyclohexyl]nicotinamide], the IC50 came out at 32 nM.

`COCCN(C)C1CCC(NC(=O)c2ccc(-c3cccc(F)c3)nc2)CC1` (single isomer, unassigned) [Example 58, 6-(3-Fluorophenyl)-N-{4-[(2-methoxyethyl)(methyl)amino]cyclohexyl}nicotinamide]: the IC50 turned out to be 307 nM.

Take `COCCN(C)C1CCC(NC(=O)c2ccc(-c3cccc(F)c3)nc2)CC1` (single isomer, unassigned) [Example 59, 6-(3-Fluorophenyl)-N-{4-[(2-methoxyethyl)(methyl)amino]cyclohexyl}nicotinamide]: the IC50 was 30.5 nM.
